For the data set the following is noted: for aqueous solubility: pH 6.8.

Structures are written as SMILES. In brackets after ≈: the same amount, converted by molar mass.

Regarding `O=C(O)C1CN(Cc2ccc(OCc3ccc(Cl)c(Cl)c3)cc2)C1`, the MDR1-MDCK efflux ratio stood at 4.1; the intrinsic clearance, human liver microsomes was ≤ 4.74 mL/min/kg; the intrinsic clearance, rat liver microsomes is ≤ 10.7 mL/min/kg.
For `N#Cc1c(N)nc(SCC(N)=O)c(C#N)c1-c1ccc(OCC2CC2)cc1`, the MDR1-MDCK efflux ratio came to 42.5 and the aqueous solubility (in general, how much of the substance goes into solution per volume) is 0.52 µg/mL (≈ 1.37 µM).
The compound `CCOc1ccccc1N/C=C1\C(=O)Oc2ccccc2C1=O` came in with an aqueous solubility of 0.66 µg/mL (≈ 2.13 µM).
As for `OC1(Cc2nc(-c3ccsc3)no2)CCCCC1`, the MDR1-MDCK efflux ratio was found to be 0.564; the intrinsic clearance, human liver microsomes was determined as 20.5 mL/min/kg; the intrinsic clearance, rat liver microsomes worked out at 1040 mL/min/kg.
On to `O=C(c1ccc2[nH]ccc2c1)N1CCCC(c2cccc(-c3ccc(F)cc3)n2)C1` (stereo unspecified), for which the MDR1-MDCK efflux ratio was 1.6; the intrinsic clearance, human liver microsomes was determined as 72.8 mL/min/kg; the intrinsic clearance, rat liver microsomes was 571 mL/min/kg; the aqueous solubility worked out at 2.35 µg/mL (≈ 5.88 µM).
For `Cc1cccc2sc(NC(=O)C(C)(C)C)nc12`, the MDR1-MDCK efflux ratio amounted to 0.352; the intrinsic clearance, human liver microsomes was determined as 36.5 mL/min/kg; the intrinsic clearance, rat liver microsomes was determined as 207 mL/min/kg; the aqueous solubility amounted to 22.6 µg/mL (≈ 91.1 µM).
The like results for `COc1cccc(CC(=O)Nc2ccc3nc(C)sc3c2)c1` were, in that order, 0.818, 33.7 mL/min/kg, 342 mL/min/kg and 52.3 µg/mL (≈ 168 µM).
For the compound `CCN1CCN(C(=O)CNc2ncnc3onc(C)c23)CC1`, the MDR1-MDCK efflux ratio is 3.68; the intrinsic clearance, human liver microsomes is ≤ 4.74 mL/min/kg; the intrinsic clearance, rat liver microsomes was ≤ 10.7 mL/min/kg.
`N#Cc1cccnc1Nc1cnn(Cc2ccccc2)c1` had an intrinsic clearance, human liver microsomes of 24.4 mL/min/kg; an intrinsic clearance, rat liver microsomes of 850 mL/min/kg; an aqueous solubility of 3.72 µg/mL (≈ 13.5 µM).
For the compound `CCN(C(=O)N1CCC(CC(=O)N2CCN(C)CC2)CC1)C(C)C`, the MDR1-MDCK efflux ratio turned out to be 16.2; the intrinsic clearance, human liver microsomes was 23.9 mL/min/kg; the intrinsic clearance, rat liver microsomes stood at 54.7 mL/min/kg; the aqueous solubility turned out to be 81.3 µg/mL (≈ 240 µM).
For the compound `COc1ccc(CCn2c(C)c3c(=O)n(-c4nc5ccccc5s4)[nH]c3cc2=O)cc1`, the intrinsic clearance, human liver microsomes worked out at 53.7 mL/min/kg; the intrinsic clearance, rat liver microsomes is 892 mL/min/kg; the aqueous solubility was 22.5 µg/mL (≈ 52.1 µM).
With `C[C@@H]1CCN(C(=O)CC#N)C[C@@H]1N(C)c1ncnc2[nH]ccc12`, the MDR1-MDCK efflux ratio is 41.1; the fraction unbound, human plasma was 0.981; the fraction unbound, rat plasma came out at 0.559; the intrinsic clearance, human liver microsomes was ≤ 4.74 mL/min/kg. This compound registered an intrinsic clearance, rat liver microsomes of 120 mL/min/kg and an aqueous solubility of 41.2 µg/mL (≈ 132 µM).
For the compound `COC(=O)c1cc(F)c(C)c(NC(=O)CCCc2ccccn2)c1`, the MDR1-MDCK efflux ratio was 0.785; the intrinsic clearance, human liver microsomes was 795 mL/min/kg; the intrinsic clearance, rat liver microsomes stood at 1680 mL/min/kg; the aqueous solubility is 43 µg/mL (≈ 130 µM).
In the case of `NC(=O)CN1CCC(CCc2ccccc2)CC1`, the intrinsic clearance, human liver microsomes was ≤ 4.74 mL/min/kg; the intrinsic clearance, rat liver microsomes was 461 mL/min/kg; the aqueous solubility stood at 41.3 µg/mL (≈ 168 µM).
As for `Cc1nc2cc(NC(=O)CCc3c(C)nc4c(c(C)nn4C)c3C)ccc2o1`, the MDR1-MDCK efflux ratio is 13.5; the intrinsic clearance, human liver microsomes was 24.2 mL/min/kg; the intrinsic clearance, rat liver microsomes is 1110 mL/min/kg; the aqueous solubility is 9.3 µg/mL (≈ 24.6 µM).
In the same order, the values of `CCN1CCc2ncnc(N(C)Cc3ccc4c(c3)OCCO4)c2C1` are 0.787, 114 mL/min/kg, 448 mL/min/kg and 38.9 µg/mL (≈ 114 µM).
As to `CC(C(=O)N1CCc2sccc2C1)N1CCCN(c2ccccc2C#N)CC1` (stereo unspecified), the MDR1-MDCK efflux ratio was determined as 0.871; the intrinsic clearance, human liver microsomes was determined as 2130 mL/min/kg; the intrinsic clearance, rat liver microsomes was determined as 4230 mL/min/kg; the aqueous solubility was found to be 25.6 µg/mL (≈ 64.9 µM).
In the same order, the values of `COc1ccc2c(c1)C=C(CN1CCC(c3cc(-c4ccc(N)nc4)cc(C)n3)CC1)CO2` are 0.999, 43.4 mL/min/kg, 169 mL/min/kg and 22.9 µg/mL (≈ 51.8 µM).
Regarding `Cc1noc2ncc(-c3nnc(CC(C)(C)C)o3)cc12`, the aqueous solubility was determined as 37.7 µg/mL (≈ 138 µM).
The compound `COC(=O)[C@]12CCC(C)(C)CC1C1C(=O)C=C3[C@@]4(C)C=C(C#N)C(=O)C(C)(C)[C@@H]4CC[C@@]3(C)[C@]1(C)CC2` (stereo partly specified) returned an intrinsic clearance, human liver microsomes of 93.5 mL/min/kg; an intrinsic clearance, rat liver microsomes of 323 mL/min/kg; an aqueous solubility of 3.15 µg/mL (≈ 6.23 µM).
In the case of `CCN(CC)CCCNc1ncc(-c2cc(C)no2)c(-c2ccco2)n1`, the MDR1-MDCK efflux ratio was 17.5; the intrinsic clearance, human liver microsomes is 5.13 mL/min/kg; the intrinsic clearance, rat liver microsomes came to 312 mL/min/kg; the aqueous solubility stood at 69.8 µg/mL (≈ 196 µM).
As to `O=c1c2ccncc2ncn1[C@H]1CCN(Cc2ccccc2)C1`, the MDR1-MDCK efflux ratio came out at 0.442; the intrinsic clearance, human liver microsomes came to 22.6 mL/min/kg; the intrinsic clearance, rat liver microsomes came out at 796 mL/min/kg.
On to `Cc1ccc(C(=O)N(C)C)cc1NS(C)(=O)=O`, for which the MDR1-MDCK efflux ratio is 8.3; the intrinsic clearance, human liver microsomes is ≤ 4.74 mL/min/kg; the intrinsic clearance, rat liver microsomes was ≤ 10.7 mL/min/kg; the aqueous solubility was 50.3 µg/mL (≈ 196 µM).
For `COc1ccc(S(=O)(=O)N2CCC[C@H](C(=O)Nc3cccc4ncccc34)C2)cc1`, the intrinsic clearance, human liver microsomes amounted to 22.6 mL/min/kg and the intrinsic clearance, rat liver microsomes was found to be 611 mL/min/kg.
With `COc1ccc(OCc2n[nH]c(-c3n[nH]c4c3CCC4)n2)cc1`, the MDR1-MDCK efflux ratio was 2.2; the intrinsic clearance, human liver microsomes was found to be 50.9 mL/min/kg; the intrinsic clearance, rat liver microsomes is 1070 mL/min/kg.
In the same order, the values of `COc1cccc(C(=O)NCC(=O)Nc2cccc3c2CCCC3)c1` are 1.3, 57.9 mL/min/kg and 607 mL/min/kg.
As for `CC(C)COc1ccc(C(C)(C)NCc2nnc(C3CCC3)o2)cc1`, the intrinsic clearance, human liver microsomes was determined as 127 mL/min/kg and the intrinsic clearance, rat liver microsomes worked out at 3070 mL/min/kg.
Take `CC1(C)O[C@@](C)([C@H]2CC3(CCNCC3)CO2)CC[C@@H]1O`: the MDR1-MDCK efflux ratio was determined as 0.443; the intrinsic clearance, human liver microsomes was ≤ 4.74 mL/min/kg; the intrinsic clearance, rat liver microsomes was ≤ 10.7 mL/min/kg; the aqueous solubility was 42.6 µg/mL (≈ 150 µM).
The like results for `CCOc1ncccc1-c1nc(C)cc(NC)n1` were, in that order, 0.672, ≤ 4.74 mL/min/kg, 26.1 mL/min/kg and 36.4 µg/mL (≈ 149 µM).
The like results for `Cc1ccnc(NC(=O)CN2CCCC2=O)c1` were, in that order, 2.12, ≤ 4.74 mL/min/kg, ≤ 10.7 mL/min/kg and 55.1 µg/mL (≈ 236 µM).
As to `NC1CCC(C(=O)N2CCC(c3c[nH]c4ncccc34)CC2)C1` (stereo unspecified), the MDR1-MDCK efflux ratio stood at 2.66; the fraction unbound, human plasma was 0.827; the intrinsic clearance, human liver microsomes is ≤ 4.74 mL/min/kg.
For `O=C(NCc1cccnc1)c1cnn(-c2ccccc2)c1`, the MDR1-MDCK efflux ratio turned out to be 2.46; the intrinsic clearance, human liver microsomes is ≤ 4.74 mL/min/kg; the intrinsic clearance, rat liver microsomes was found to be 26.3 mL/min/kg; the aqueous solubility worked out at 38.3 µg/mL (≈ 138 µM).
`CN1CCN(C(=O)c2ccc3cc(CCNc4ncnc5ccc(C#N)cc45)ccc3c2)CC1` had an intrinsic clearance, human liver microsomes of 81.8 mL/min/kg and an intrinsic clearance, rat liver microsomes of 238 mL/min/kg.
As for `CN(CCc1ccccn1)c1cnc2ccccc2n1`, the MDR1-MDCK efflux ratio stood at 0.64; the intrinsic clearance, human liver microsomes came to 86.3 mL/min/kg; the intrinsic clearance, rat liver microsomes turned out to be 862 mL/min/kg; the aqueous solubility stood at 44.5 µg/mL (≈ 169 µM).
As for `CNC(=O)c1ccc(N2CCCc3cc(OC)ccc3C2)nn1`, the MDR1-MDCK efflux ratio was 0.886; the intrinsic clearance, human liver microsomes is 11.8 mL/min/kg; the intrinsic clearance, rat liver microsomes stood at 860 mL/min/kg.
For the compound `COc1ccc(-c2noc([C@@H]3CCCN3Cc3cccnc3)n2)cn1`, the MDR1-MDCK efflux ratio was 0.759; the intrinsic clearance, human liver microsomes was found to be 98 mL/min/kg; the intrinsic clearance, rat liver microsomes is 1240 mL/min/kg; the aqueous solubility was determined as 26.2 µg/mL (≈ 77.7 µM).
Consider `Cc1nsc(NCc2cncs2)n1`, for which the MDR1-MDCK efflux ratio stood at 0.684; the intrinsic clearance, human liver microsomes is ≤ 4.74 mL/min/kg; the intrinsic clearance, rat liver microsomes amounted to 16.8 mL/min/kg.
For `Cc1cc(NC(=O)[C@H](C)N(C)C)c2ccccc2n1`, the MDR1-MDCK efflux ratio is 0.813; the intrinsic clearance, human liver microsomes was determined as 9.63 mL/min/kg; the intrinsic clearance, rat liver microsomes was 109 mL/min/kg.
On to `CNC(=O)Cc1nc(-c2cncc(C)c2)cs1`, for which the MDR1-MDCK efflux ratio was determined as 0.978; the intrinsic clearance, human liver microsomes amounted to 5.86 mL/min/kg; the intrinsic clearance, rat liver microsomes was determined as 14.5 mL/min/kg; the aqueous solubility came out at 37.6 µg/mL (≈ 152 µM).
Take `CC(C)CCNC(=O)c1ccc2ccccc2n1`: the intrinsic clearance, human liver microsomes amounted to 168 mL/min/kg; the intrinsic clearance, rat liver microsomes stood at 640 mL/min/kg; the aqueous solubility worked out at 7.28 µg/mL (≈ 30 µM).
`CC(=O)Nc1cccc(CN2CCCN(C(C)=O)c3ccccc32)c1`: the MDR1-MDCK efflux ratio was 15.9; the intrinsic clearance, human liver microsomes is 139 mL/min/kg; the intrinsic clearance, rat liver microsomes worked out at 919 mL/min/kg; the aqueous solubility was found to be 29.6 µg/mL (≈ 87.8 µM).
The like results for `COc1cc(/C=C2\CCCN([C@@H](C)c3ccc(F)cc3)C2=O)ccc1-n1cnc(C)c1` were, in that order, 1.48, 44.4 mL/min/kg, 83.1 mL/min/kg and 12.9 µg/mL (≈ 30.8 µM).
In the same order, the values of `NC(=O)Cn1cc(-c2ccc(F)cc2)cn1` are 0.87, ≤ 4.74 mL/min/kg, ≤ 10.7 mL/min/kg and 28 µg/mL (≈ 128 µM).
For the compound `OCC1CCCCN1Cc1ccc(-c2ccccc2)cc1` (stereo unspecified), the MDR1-MDCK efflux ratio was 0.708; the fraction unbound, human plasma was 0.233; the fraction unbound, rat plasma was 0.248; the intrinsic clearance, human liver microsomes was determined as 20.6 mL/min/kg. This compound displayed an intrinsic clearance, rat liver microsomes of 2220 mL/min/kg and an aqueous solubility of 41.7 µg/mL (≈ 148 µM).

These data come from the Biogen ADME set (Fang et al. 2023).
